The values that follow are results of earlier work, collected in patent US20140171372A1, “Treatments for Alzheimer's disease” (priority 2012, published 2014).

The conditions of series [1]: treatment of spinal injury, Parkinson disease and AD.
The conditions of series [2]: radiolabeled, injected systemically into animals.
Another series has as its system AD patients. Particulars: intracerebroventricular injection, limited number of AD patients.

In the case of GM1, in the series with animal models, the “neuroprotective effect in animal models” value was “neuroprotective”. Also, the “tolerability in Human” value in series [1] is “well tolerated”. Also, in series [2], the “distribution after systemic injection” value is “reach neuronal synapses and neuromuscular junctions”. The “neuroprotective effect in cultured cells” value with cultured cells is “neuroprotective”. In addition, the “clinical improvement in AD patients” value with AD patients is “some degree of improvement”.

In the case of Solanezumab, the “outcome of clinical trial in AD” value with patients is on record as “failed”.

For the molecule `CCCCCCCCCCCCC/C=C/C(O)C(COC1OC(CO)C(OC2OC(CO)C(OC3OC(CO)C(O)C(OC4OC(CO)C(O)C(O)C4O)C3NC(C)=O)C(OC3(C(=O)O)CC(O)C(NC(C)=O)C(C(O)C(O)CO)O3)C2O)C(O)C1O)NC(=O)C(Cl)Cl` (stereo not drawn) [LIGA20], in the series on animal models, the “neuroprotective effect in animal models” value was “neuroprotective”. In the series on cultured cells, the “neuroprotective effect in cultured cells” value is given as “neuroprotective”. Further, in the series on cultured cells (cultured cells and animal models, compared with GM1), the “protective effects relative to GM1” value is “more potent protective effects than GM1”.
